Test results published in patent US20070155023A1, “Identification of proteins and other species with emissive chelating label” (Massachusetts Institute of Technology, priority 2005, published 2007).

Assays:
[1] = test system: cell cultures (nuclei stained with Hoechst 33285); assay: Nuclear morphology study of NTA-DCF toxicity; type: cell-based
Experimental: Cells were incubated with either NTA-DCF or PBS for five min, washed twice with PBS, and fixed for 5 min with 4% p-formaldehyde. After fixation, the cells were rinsed four times with PBS (5 min each wash). Hoechst 33285 dye (Molecular Probes) was added to the second rinse such that the final concentration reached 2 μg/ml.

[2] = test system: polyhistidine sequences on HeLa cells transfected with pDisplay-6×His; assay: Fluorescent labeling of extracellular His6 tags on transfected HeLa cells (confocal microscopy); type: cell-based
Experimental: (§1) This example describes the incorporation of an affinity tag within a target analyte (e.g., a cell). A polyhistidine affinity tag was incorporated within a plasmid, which was then used for transfection with the target cell. pDisplay-6×His was constructed by introduction of an oligonucleotide encoding for a His6 tag (5′-CATCATCATCATCATCAT-3′) into a pDisplay plasmid (Invitrogen) digested with BglII and SalI.
(§2) Both HeLa and HEK 293-T cells were cultured in Dulbecco's Modified Eagle Medium (DMEM) supplemented with 10% fetal calf serum (FCS, Invitrogen), glutamine (2 mM), Penicillin (100 units/mL) and Streptomycin (100 μg/mL). The cells were passed and plated on 18 mm glass coverslips coated with 0.2% gelatin 36 hours before transfection. […]
(§3) The fluorescently-labeled cells may be monitored by confocal microscopy. Confocal images of cells (NTA-DCF staining and mRFP fluorescence) were obtained with a Zeiss LSM510 microscope equipped with a 100× objective. […] Images of cells stained with Hoechst 33285 were obtained with a Zeiss Axioscope fluorescence microscope equipped with a 40× objective and a Hamamatsu digital camera. […]
(§4) A metal chelator was added to observe the effect on binding of NTA-DCF probe to the target cell. […] In the absence of EDTA or a similar metal scavenging agent, the label-protein construct persisted for at least 20 min after washing, but its stability has not yet been fully assessed.

HeLa cells = assay: Cell permeability of living HeLa cells; type: in vitro ADME; settings: alone or as its Ni^2+ adduct, 5 μM, 5 min, 22° C., PBS
Experimental: (§5) The cells as described in Example 3 were used for labeling with NTA-DCF two days after transfection with plasmid. Immediately prior to labeling, the cells were washed once with PBS. A stock solution of complexed Ni^2+-NTA-DCF was prepared by mixing 2.5 mM NiCl2 and 2.5 mM NTA-DCF in a 1:1 ratio in PBS. HeLa and HEK 293-T cells were each washed once with PBS, then incubated with 5 μM Ni^2+-NTA-DCF for 5 min at 22° C. in PBS. The cells were subsequently rinsed twice with PBS, fixed with 4% paraformaldehyde for 5 min, washed with two portions of PBS, and mounted using Vectashield anti-fading reagent (Vector Labs). As a negative control, a cell sample was incubated with NTA-DCF without added Ni^2+. In order to gauge the reversibility of staining, 5 mM EDTA was added to a sample of cells stained with 5 μM NTA-DCF and 5 μM Ni^2+. […] This impermeability can be exploited to label and image selectively proteins on the extracellular side of the cell membrane. The NTA-DCF composition was premixed with an equimolar concentration of NiCl2, and the mixture was added to a sample containing either HeLa or HEK 293-T cells.

[3] = test system: polyhistidine sequences on HEK 293-T cells transfected with pDisplay-6×His; assay: Fluorescent labeling of extracellular His6 tags on transfected HEK 293-T cells (confocal microscopy); type: cell-based
Experimental: as §1, §2, §3, §4

[4] = Photophysical properties (absorbance, emission, quantum yield) in pH 7 buffer; type: physicochemical; settings: for Quantum yield Φ: no metal ion, pH 7, 22° C., relative to fluorescein
Description: General Procedure. Acetonitrile (MeCN) was dried over 3 Å molecular sieves. Triethylamine (Et3N) and chloroform (CHCl3) were purchased from Aldrich and used as received. 6-Carboxy-2′,7′-dichlorofluorescein-3′,6′-diacetatesuccinimidyl ester was synthesized by a method previously developed in this laboratory. ^1N,N-Bis(carboxymethyl)-L-lysine hydrate was purchased from Fluka and used as received. ^1H and ^13C NMR spectra were acquired on either a Varian 300 Mhz or a Varian 500 MHz spectrometer and referenced to internal standards. IR spectra were collected on an Avatar 360 FT-IR instrument. Melting points were measured with a Mel-Temp apparatus. Fluorescence spectra were obtained on a Hitachi F-3020 spectrofluorimeter, and UV/vis spectra were acquired on a Cary 1E spectrophotometer. Low-resolution mass spectra were collected on an Agilent 1100 Series LC/MSD system. High-resolution mass spectra were provided by staff at the MIT Department of Chemistry Instrumentation Facility. Preliminary cell images were acquired with a Nikon Eclipse TS100 microscope equipped with an RT Diagnostics camera with illumination provided by a Chiu Mercury 100 W lamp. Magnification was 20×. The cell imaging system was operated with Spot Advanced software. Fluorescence images were obtained using a FITC-HYQ filter cube (excitation 460-500 nm, bandpass 510-560 nm). Select cell images were acquired with a LSM510 confocal microscope.
Aqueous solutions were prepared with Millipore water. A 2.25 mM stock solution of NTA-DCF in DMSO was prepared, separated into aliquots, stored at −25° C., and thawed in the dark immediately before use. All spectroscopic data were collected in a pH 7 buffer solution of 50 mM piperazine-N,N′-bis(2-ethanesulfonic acid) (PIPES) and 100 mM KCl unless noted otherwise. Solution magnetic susceptibilities were measured by the Evan's method. Spectroscopic data were taken at room temperature (22° C.). Quantum yields were measured relative to fluorescein in 0.1 M NaOH (Φ=0.95).
The photophysical properties of the signaling entity were measured to observe the effect that introduction of the NTA functionality may have on the absorbance and/or emission of the signaling entity.

HEK 293-T cells = assay: Cell permeability of living HEK 293-T cells; type: in vitro ADME; settings: alone or as its Ni^2+ adduct, 5 μM, 5 min, 22° C., PBS
Experimental: as §5

[5] = pDisplay-6×His, premixed with equimolar NiCl2

Row | Compound | Toxicity (nuclear morphology study) ([1]; 5-μM dose, five min incubation, FIG. 7) | Change of size and shape of nuclei ([1]; addition of NTA-DCF, five min, Hoechst staining) | Binding of the probe when Ni^2+ is unavailable ([2]; 5 μM NTA-DCF without NiCl2, 5 min, FIG. 4B) | Fluorescent labeling of polyhistidine sequences on extracellular plasma membrane surface [2, 5] | Entry into cells (HeLa cells) | Binding of the probe when the polyhistidine tag is not expressed ([3]; pDisplay without His6 tags, 5 μM NTA-DCF and 5 μM NiCl2, FIG. 5B) | Fluorescent labeling of polyhistidine sequences on extracellular plasma membrane surface [3, 5] | melting point | Decrease in fluorescence emission upon addition of NiCl2 ([4]; 50 mM PIPES, 100 mM KCl, pH 7.0, FIG. 2) [%] | Quantum yield Φ after chelation of a paramagnetic metal ion ([4]; after chelation of Ni^2+, relative to fluorescein in 0.1 M NaOH) | Extinction coefficient ε ([4]; at 504 nm) [M⁻¹ cm⁻¹] | Quantum yield Φ ([4]; 50 mM PIPES, 100 mM KCl) | Absorption band ([4]; pH 7 buffer) [nm] | Emission λmax ([4]; pH 7 buffer) [nm] | Entry into cells (HEK 293-T cells)
1 | O=C(O)CN(CC(=O)O)C(CCCCNC(=O)c1ccc(C(=O)O)c(-c2c3cc(Cl)c(=O)cc-3oc3cc(O)c(Cl)cc23)c1)C(=O)O (centres unmarked) [NTA-DCF, N-[5-(Bis-carboxymethyl-amino)-5-carboxy-pentyl]-2-(2,7-dichloro-6-hydroxy-3-oxo-3H-xanthen-9-yl)-terephthalamic acid] | not toxic | Neither the size nor shapes of the nuclei change | blocked | fluorescently label | not enter | blocked | fluorescently label | 182 °C (dec.) | 5 | 0.72 | 86000 | 0.78 | 504 | 527 | not enter
2 | O=C1OC2(c3cc(Cl)c(O)cc3Oc3cc(O)c(Cl)cc32)c2ccccc21 [2′,7′-dichlorofluorescein, reference compound] |  |  |  |  |  |  |  |  |  |  |  | 0.88 |  | 526 | 
